These results are taken from patent US20100022491A1, “4-HYDROXY-2-OXO-2,3-DIHYDRO-1,3-BENZOTHIAZOL-7YL COMPOUNDS FOR MODULATION OF B2-ADRENORECEPTOR ACTIVITY” (ASTRAZENECA AB, priority 2006, published 2010).

The structures appear in SMILES notation. Where a name gives a salt, the structure may show the parent alone.

The target of test [1] is T1, recombinant human α1D receptor (Homo sapiens, UniProt P25100).
T1 construct: expressed in transfected cells; host or cells: HEK293
T1 sequence (P25100 1-572): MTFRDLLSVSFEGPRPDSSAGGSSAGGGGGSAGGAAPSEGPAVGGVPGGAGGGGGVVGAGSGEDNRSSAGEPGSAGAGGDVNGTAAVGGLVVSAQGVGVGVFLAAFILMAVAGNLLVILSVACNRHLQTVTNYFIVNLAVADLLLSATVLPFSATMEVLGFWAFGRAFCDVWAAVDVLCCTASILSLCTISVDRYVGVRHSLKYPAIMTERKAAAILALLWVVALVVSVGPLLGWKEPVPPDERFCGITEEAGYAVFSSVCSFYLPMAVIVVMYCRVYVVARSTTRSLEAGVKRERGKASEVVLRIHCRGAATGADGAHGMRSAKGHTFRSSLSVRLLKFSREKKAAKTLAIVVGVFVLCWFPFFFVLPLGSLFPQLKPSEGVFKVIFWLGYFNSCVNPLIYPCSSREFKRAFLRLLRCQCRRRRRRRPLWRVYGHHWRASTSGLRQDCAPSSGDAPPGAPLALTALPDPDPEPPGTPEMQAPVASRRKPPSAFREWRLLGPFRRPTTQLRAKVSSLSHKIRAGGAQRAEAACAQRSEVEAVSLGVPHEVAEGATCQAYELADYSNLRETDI
The test is described as follows: Adrenergic α1D selectivity binding assay ([3H]-prazosin). Particulars: inhibition of [3H]-prazosin (0.3 nM) binding, HEK293 membranes; read-out: α1 bind pIC50 (converted). The procedure, abridged: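 HEK293 membranes with recombinant human α1D receptor incubated 2 h at room temperature with 0.3 nM [3H]-prazosin and compound in 50 mM HEPES, 1 mM EDTA, 0.1% gelatin, pH 7.4; BMY7378 (10 μM) defined non-specific binding. Filter-bound radioactivity counted; pIC50 from four-parameter logistic fit.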

Test [2] concerns the target T2, recombinant human adrenergic beta 1 receptors (Homo sapiens, UniProt P08588).
T2 construct: purchased Euroscreen
The test is described as follows: Adrenergic β1 selectivity binding assay ([125I]-Iodocyanopindolol). The note with it: inhibition of [125I]-Iodocyanopindolol (0.036 nM) binding; read-out: β1 bind p IC50 (converted). A digest of the protocol:
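Recombinant human β1 membranes in HEPES buffer pH 7.4 with 120 mM NaCl were incubated 2 hours at room temperature with 0.036 nM [^125I]-Iodocyanopindolol. Nonspecific binding defined by 10 μM propranolol; bound radioactivity counted after filtration. pIC50 from four-parameter logistic fit.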

For test [3], the target named is T3, recombinant human Dopamine Subtype D2s receptors (Homo sapiens, UniProt P14416).
T3 construct: purchased Perkin Elmer
T3 sequence (P14416 1-414 isoform P14416-2): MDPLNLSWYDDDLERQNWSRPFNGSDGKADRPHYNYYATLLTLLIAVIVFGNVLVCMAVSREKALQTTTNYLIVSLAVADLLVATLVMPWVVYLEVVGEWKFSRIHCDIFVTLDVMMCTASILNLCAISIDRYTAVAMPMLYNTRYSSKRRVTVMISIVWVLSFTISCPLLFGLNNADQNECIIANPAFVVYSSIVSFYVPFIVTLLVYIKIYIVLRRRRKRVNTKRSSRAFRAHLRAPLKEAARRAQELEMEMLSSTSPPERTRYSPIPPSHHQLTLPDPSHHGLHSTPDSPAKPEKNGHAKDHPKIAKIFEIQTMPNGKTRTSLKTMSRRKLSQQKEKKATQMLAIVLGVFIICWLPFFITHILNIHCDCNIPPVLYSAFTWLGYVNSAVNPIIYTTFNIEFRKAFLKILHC
The test is described as follows: Dopamine D2 selectivity binding assay ([3H]-spiperone). Particulars: inhibition of [3H]-spiperone (0.16 nM) binding; read-out: D2 bind pIC50 (converted). A digest of the protocol: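 Recombinant human D2s membranes incubated 2 h at room temperature with 0.16 nM [3H]-spiperone in HEPES/EDTA/NaCl/gelatin buffer, pH 7.4; 10 μM haloperidol defined non-specific binding. Filter-bound radioactivity counted after cold washes. pIC50 from 4-parameter logistic fit of NSB-corrected specific binding.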

T2 sequence (P08588 whole entry): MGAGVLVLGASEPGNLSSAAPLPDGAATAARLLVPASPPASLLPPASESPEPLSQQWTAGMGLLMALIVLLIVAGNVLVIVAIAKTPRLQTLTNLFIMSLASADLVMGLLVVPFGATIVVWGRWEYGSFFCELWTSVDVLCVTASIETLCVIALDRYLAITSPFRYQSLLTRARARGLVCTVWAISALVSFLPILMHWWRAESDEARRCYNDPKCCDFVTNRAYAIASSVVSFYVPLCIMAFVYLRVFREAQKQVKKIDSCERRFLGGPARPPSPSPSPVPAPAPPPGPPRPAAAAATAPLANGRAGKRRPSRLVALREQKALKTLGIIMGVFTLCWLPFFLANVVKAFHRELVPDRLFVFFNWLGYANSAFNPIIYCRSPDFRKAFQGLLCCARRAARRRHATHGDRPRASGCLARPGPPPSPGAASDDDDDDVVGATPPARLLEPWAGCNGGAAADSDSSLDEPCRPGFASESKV

With `O=C(CCNCCc1ccc(F)cc1F)N(CCNCCc1ccc(O)c2[nH]c(=O)sc12)C1CCCCCC1` [Example 55, N^1-Cycloheptyl-N^3-[2-(2,4-difluorophenyl)ethyl]-N^1-(2-{[2-(4-hydroxy-2-oxo-2,3-dihydro-1,3-benzothiazol-7-yl)ethyl]amino}ethyl)-β-alaninamide bis-trifluoroacetic acid salt], the IC50 in test [1] is 50.1 nM; in test [2], 2510 nM; in test [3] it was 20 nM.

As for `O=C(CCNCCc1cccc(F)c1F)N(CCNCCc1ccc(O)c2[nH]c(=O)sc12)C1CCCCCC1` [Example 56, N^1-Cycloheptyl-N^3-[2-(2,3-difluorophenyl)ethyl]-N^1-(2-{[2-(4-hydroxy-2-oxo-2,3-dihydro-1,3-benzothiazol-7-yl)ethyl]amino}ethyl)-β-alaninamide bis-trifluoroacetic acid salt], the figures for the IC50 in test [1], in test [2] and in test [3] were 251 nM, 3160 nM and 31.6 nM, respectively.

With `O=C(CCNCCc1ccc(F)cc1Cl)N(CCNCCc1ccc(O)c2[nH]c(=O)sc12)C1CCCCCC1` [Example 57, N^3-[2-(2-Chloro-4-fluorophenyl)ethyl]-N^1-cycloheptyl-N^1-(2-{[2-(4-hydroxy-2-oxo-2,3-dihydro-1,3-benzothiazol-7-yl)ethyl]amino}ethyl)-β-alaninamide bis-trifluoroacetic acid salt], the IC50 in test [1] is 50.1 nM; in test [2], 2510 nM; in test [3], 31.6 nM.

On to `O=C(CCNCCc1cc(F)cc(F)c1)N(CCNCCc1ccc(O)c2[nH]c(=O)sc12)C1CCCCCC1` [Example 58, N^1-Cycloheptyl-N^3-[2-(3,5-difluorophenyl)ethyl]-N^1-(2-{[2-(4-hydroxy-2-oxo-2,3-dihydro-1,3-benzothiazol-7-yl)ethyl]amino}ethyl)-β-alaninamide bis-trifluoroacetic acid salt], for which the IC50 in test [1] was 251 nM; in test [2], 5010 nM; in test [3], 158 nM.

For `O=C(CCNCCc1ccccc1)N(CCNCCc1ccc(O)c2[nH]c(=O)sc12)CC12CC3CC(CC(C3)C1)C2` [Example 59, N^1-(1-Adamantylmethyl)-N^1-(2-{[2-(4-hydroxy-2-oxo-2,3-dihydro-1,3-benzothiazol-7-yl)ethyl]amino}ethyl)-N^3-(2-phenylethyl)-β-alaninamide bis-trifluoroacetic acid salt], the IC50 in test [1] was 100 nM; in test [2], 794 nM; in test [3], 398 nM.

For `O=C(CCNCCc1cccc(F)c1)N(CCNCCc1ccc(O)c2[nH]c(=O)sc12)CC12CC3CC(CC(C3)C1)C2` [Example 60, N^1-(1-Adamantylmethyl)-N^3-[2-(3-fluorophenyl)ethyl]-N^1-(2-{[2-(4-hydroxy-2-oxo-2,3-dihydro-1,3-benzothiazol-7-yl)ethyl]amino}ethyl)-β-alaninamide bis-trifluoroacetic acid salt], the IC50 in test [1] is 316 nM; in test [2], 2000 nM; in test [3] it was 794 nM.

`O=C(CCNCCc1ccc(F)cc1)N(CCNCCc1ccc(O)c2[nH]c(=O)sc12)CC12CC3CC(CC(C3)C1)C2` [Example 61, N^1-(1-Adamantylmethyl)-N^3-[2-(4-fluorophenyl)ethyl]-N^1-(2-{[2-(4-hydroxy-2-oxo-2,3-dihydro-1,3-benzothiazol-7-yl)ethyl]amino}ethyl)-β-alaninamide bis-trifluoroacetic acid salt]: the IC50 in test [1] is 316 nM; in test [2], 2510 nM; in test [3] it was 794 nM.

Turning to `O=C(CCNCCc1ccccc1)N(CCNCCc1ccc(O)c2[nH]c(=O)sc12)C1CCSCC1` [Example 62, N-(2-{[2-(4-Hydroxy-2-oxo-2,3-dihydro-1,3-benzothiazol-7-yl)ethyl]amino}ethyl)-N^3-(2-phenylethyl)-N^1-(tetrahydro-2H-thiopyran-4-yl)-β-alaninamide bis-trifluoroacetic acid salt], the figures for the IC50 in test [1], in test [2] and in test [3] were 63.1 nM, 398 nM and 398 nM, respectively.

Regarding `CCCC(CCC)N(CCNCCc1ccc(O)c2[nH]c(=O)sc12)C(=O)CCNCCc1cccc(F)c1` [Example 63, N^3-[2-(3-Fluorophenyl)ethyl]-N^1-(2-{[2-(4-hydroxy-2-oxo-2,3-dihydro-1,3-benzothiazol-7-yl)ethyl]amino}ethyl)-N^1-(1-propylbutyl)-β-alaninamide bis-trifluoroacetic acid salt], the IC50 is 158 nM in test [1], 2510 nM in test [2] and 200 nM in test [3].

For the molecule `CCCC(CCC)N(CCNCCc1ccc(O)c2[nH]c(=O)sc12)C(=O)CCNCCc1ccc(F)cc1` [Example 64, N^3-[2-(4-Fluorophenyl)ethyl]-N^1-(2-{[2-(4-hydroxy-2-oxo-2,3-dihydro-1,3-benzothiazol-7-yl)ethyl]amino}ethyl)-N^1-(1-propylbutyl)-β-alaninamide bis-trifluoroacetic acid salt], the values for the IC50 in test [1], in test [2] and in test [3] were 79.4 nM, 6310 nM and 200 nM, respectively.

Regarding `CC(C)(CO)CN(CCNCCc1ccc(O)c2[nH]c(=O)sc12)C(=O)CCNCCc1ccccc1Cl` [Example 65, N^3-[2-(2-Chlorophenyl)ethyl]-N^1-(3-hydroxy-2,2-dimethylpropyl)-N^1-(2-{[2-(4-hydroxy-2-oxo-2,3-dihydro-1,3-benzothiazol-7-yl)ethyl]amino}ethyl)-β-alaninamide bis-trifluoroacetic acid salt], the values for the IC50 in test [1], in test [2] and in test [3] were 100 nM, 1000 nM and 398 nM, respectively.

For `CC(C)(CO)CN(CCNCCc1ccc(O)c2[nH]c(=O)sc12)C(=O)CCNCCc1cccc(Cl)c1` [Example 66, N^3-[2-(3-Chlorophenyl)ethyl]-N^1-(3-hydroxy-2,2-dimethylpropyl)-N^1-(2-{[2-(4-hydroxy-2-oxo-2,3-dihydro-1,3-benzothiazol-7-yl)ethyl]amino}ethyl)-β-alaninamide bis-trifluoroacetic acid salt], the values for the IC50 in test [1], in test [2] and in test [3] were 251 nM, 1580 nM and 631 nM, respectively.

With `CC(C)(CO)CN(CCNCCc1ccc(O)c2[nH]c(=O)sc12)C(=O)CCNCCc1cccc(Cl)c1Cl` [Example 67, N^3-[2-(2,3-Dichlorophenyl)ethyl]-N^1-(3-hydroxy-2,2-dimethylpropyl)-N^1-(2-{[2-(4-hydroxy-2-oxo-2,3-dihydro-1,3-benzothiazol-7-yl)ethyl]amino}ethyl)-β-alaninamide bis-trifluoroacetic acid salt], the IC50 in test [1] is 200 nM; in test [2], 1000 nM; in test [3] it was 158 nM.

Consider `COc1ccc(CCNCCC(=O)N(CCNCCc2ccc(O)c3[nH]c(=O)sc23)C2CCCCC2)cc1` [Example 68, N^1-Cyclohexyl-N^1-(2-{[2-(4-hydroxy-2-oxo-2,3-dihydro-1,3-benzothiazol-7-yl)ethyl]amino}ethyl)-N^3-[2-(4-methoxyphenyl)ethyl]-β-alaninamide bis-trifluoroacetic acid salt], for which the IC50 was 200 nM in test [1], 3980 nM in test [2] and 50.1 nM in test [3].

Regarding `NS(=O)(=O)c1ccc(CCNCCC(=O)N(CCNCCc2ccc(O)c3[nH]c(=O)sc23)C2CCCCC2)cc1` [Example 69, N^3-{2-[4-(Aminosulfonyl)phenyl]ethyl}-N^1-cyclohexyl-N^1-(2-{[2-(4-hydroxy-2-oxo-2,3-dihydro-1,3-benzothiazol-7-yl)ethyl]amino}ethyl)-β-alaninamide bis-trifluoroacetic acid salt], the IC50 in test [1] was 158 nM; in test [2], 6310 nM; in test [3] it was 100 nM.

In the case of `O=C(CCNCCc1cccc(O)c1)N(CCNCCc1ccc(O)c2[nH]c(=O)sc12)C1CCCCC1` [Example 71, N^1-Cyclohexyl-N^1-(2-{[2-(4-hydroxy-2-oxo-2,3-dihydro-1,3-benzothiazol-7-yl)ethyl]amino}ethyl)-N^3-[2-(3-hydroxyphenyl)ethyl]-β-alaninamide bis-trifluoroacetic acid salt], the IC50 in test [1] was 200 nM; in test [2], 3980 nM; in test [3], 100 nM.
